The results in this text go back to patent publication US9598451B2, “Bis-organometallic 2-amino-3-hydroxy-2-methylpropanenitrile derivatives for use as anthelmintics” (UNIVERSITÄT ZÜRICH, priority 2013, dated 2017).

What all share (type): cell-based
Assay [1] concerns human cervical cancer HeLa. Briefly: fluorometric cell viability assay (Resazurin), HeLa. The conditions noted are these: HeLa cells, treated for 2 days. The procedure: (§1) Cell Culture: Human cervical carcinoma cells (HeLa) were cultured in DMEM (Gibco) supplemented with 5% fetal calf serum (FCS, Gibco), 100 U/ml penicillin, 100 μg/ml streptomycin at 37° C. and 5% CO2. The normal human fetal lung fibroblast MRC-5 cell line was maintained in F-10 medium (Gibco) supplemented with 10% FCS (Gibco), 200 mmol/l L-Glutamine, 100 U/ml penicillin, and 100 μg/ml streptomycin at 37° C. and 5% CO2. To establish the anticancer potential of the compounds they were tested in one cell line, namely HeLa by a fluorometric cell viability assay using Resazurin (Promocell GmbH). Compounds showing cytotoxicity were then tested on normal MRC-5 cells. 1 day before treatment, cells were plated in triplicates in 96-well plates at a density of 4×10^3 cells/well in 100μl for HeLa and 7×10^3 cells/well for MRC-5 cells. Cells were treated with increasing concentrations of the compounds for 2 days. After 2 days, medium and drug were removed and […] fresh medium containing Resazurin (0.2 mg/ml final concentration) were added. After 4h of incubation at 37° C., the highly red fluorescent dye resorufin's fluorescence was quantified at 590 nm emission with 540 nm excitation wavelength in the SpectraMax M5 microplate Reader. […]
(Resazurin is reduced to fluorescent resorufin, in cell work by metabolically active cells.)

The subject of assay [2] is human lung fibroblasts MRC-5. Nature of the assay: fluorometric cell viability assay (Resazurin), MRC-5. The note with it: MRC-5 cells, treated for 2 days. The procedure: as §1
Assay [3] has as its system C. elegans. Nature of the assay: C. elegans movement inhibition assay. The conditions noted are these: for mobility of the C. elegans worms: 50 μM, result in words. The procedure: C. elegans movement inhibition assay: Asynchronous N2 C. elegans worms (Bristol) were maintained on nematode growth medium (NGM) agar, seeded with a lawn on OP50 E. coli as a food-source, according to standard protocol (Maintenance of C. elegans; Stiernagle, T., Ed.; WormBook, 2006.). Worms were harvested from NGM plates by washing with M9 buffer (42 mmol/l Na2HPO4, 86 mmol/l NaCl and 1 mmol/l MgSO4), aspiration and collection in a 10 mL tube (Falcon). The average number of worms in 5 μL of this suspension was calculated by transferring 4×5 μL aliquots to a glass slide (Menzel Glaser), and worms were enumerated under a compound microscope (Olympus CH30). To adjust the suspension to contain 1 worm per μL, M9 buffer was either added or removed after pelleting worms at 600×g for 30 sec.
Dilution of test compounds, Zolvix (monepantel) and DMSO for working stock solutions and 96 well plate set-up for liquid screen: A volume of […] buffer was added to each well in a 96-well plate, using a multichannel pipettor. A volume of 20μL of worm suspension was added to each well using a single-channel pipettor, with a trimmed pipette tip (increased aperture to minimize damage to worms). The worm suspension was resuspended by flicking after every three wells to maintain consistency. The compounds were stored at 4° C., and diluted in dimethyl sulfoxide (DMSO) to achieve a 100 mmol/l concentration 1 hr prior to addition to assay. These stock solutions were diluted further in DMSO to create a series of 20 mmol/l, […] and 0.002 mmol/l which were subsequently diluted 1:20 in M9 buffer to create 1 mmol/l, 0.1 mmol/l, 1 μmol/l and 0.1 μmol/l (all 5% (v/v) DMSO). […] A Zolvix (monepantel) dilution series was simultaneously created following the same dilution schema, and used as a positive control; 10 μL of 10% DMSO was added to achieve 1% DMSO vehicle control. 10 μL M9 was added to negative control wells (see FIG. 1). Plates were incubated at […]
Quantitative worm mobility scoring: Immobile worms were counted as a percentage of total worms in each well using an Olympus SZ30 dissecting microscope. The immobile fraction was subtracted from the total, and this remainder was divided by the total to give a percentage of live worms per well. Descriptive and inferential statistics were deferred until further replicates are performed.

Assay [4] relates to H. contortus. Briefly: larval development assay (number of L3). The method, then:
In vitro experiments can be conducted by testing compounds in a larval development assay. To do this, sheep are infected with infective third-stage larvae (L3) of species of Haemonchus, Trichstrongylus, Teledorsagia, Cooperia, Oesophagostomum or Chabertia. Faeces from these sheep are collected and used for experiments; ˜100 g of faeces are crushed homogenized and suspended in ˜1000 ml of sugar solution (specific gravity 1.2), put through a ‘tea strainer’ sieve, and the large undigested food material in the sieve discarded. The sugar solution is then placed into a flat dish and strips of plastic overhead transparency film placed on the surface. The plastic is left for at least 45 minutes to allow the eggs to stick and then removed carefully. The eggs are collected by washing them from the plastic film, with water, into a 50 ml centrifuge tube. The water containing egg suspension eggs is put through a […] to remove further plant material and then centrifuged at 1,000×g for 10 minutes. The supernatant is checked for eggs and then discarded as the majority of eggs are at the bottom of the tube. These eggs are collected in 1 ml of water and diluted to ˜200 eggs/20 ml. • 1. […] Following 7 days additional incubation, the numbers of L3 larvae that had developed in each well is determined.

With “2-Cyano-2-(ruthenocenecarboxamido)propyl ruthenocnecarboxylate [Compound 2a]”, the half-inhibitory concentration (IC50) in assay [1] and in assay [2] was above 100 µM each time.

Regarding “2-Ferroceneamido-2-cyanopropyl ferrocenate [Compound 2]”, in assay [3], the “Mobility in C. elegans at 50 μM” value is given as 22% and the “mobility of the C. elegans worms” value is given as “reduced”. The substance further showed an IC50 in assay [1] above 100 µM. Further, the “Number of L3 H. contortus/100 μM” value in assay [4] is given as above 100. Besides, half-maximal inhibition in assay [2] (IC50) required 24.6 µM.

Take “N-(1-(ferrocenyloxy)-2-cyanopropan-2-yl)ferroceneamide [Compound 1]”: in assay [3], the “Mobility in C. elegans at 50 μM” value amounted to 25% and the “mobility of the C. elegans worms” value is “reduced”. For the same substance, in assay [4], the “Number of L3 H. contortus/100 μM” value is 94.7.

As usually defined, the IC50 is the concentration needed to halve the response being measured. The low end stands for inhibition by little substance, the high end for a need for much substance.
